Source: patent US9290478B2, “Substituted quinoxalines as FGFR kinase inhibitors” (ASTEX THERAPEUTICS LTD, priority 2010, dated 2016)

How the values were obtained:
FGFR2 (h) = FGFR2 (h) (Homo sapiens, UniProt P21802); experiment: FGFR2 (enzymatic assay), TR-FRET; format: biochemical; settings: 0.4 μM ATP; read-out: FGFR2 pIC50 (converted)
Procedure: (§1) In a final reaction volume of 30 μL, FGFR2 (h) (150 ng/ml) was incubated with 50 mM HEPES pH 7.5, 6 mM MnCl2, 1 mM DTT, 0.1 mM Na3VO4, 0.01% Triton-X-100, 500 nM Btn-Flt3 and 0.4 μM ATP in the presence of compound (1% DMSO final). After incubation for 60 minutes at room temperature the reaction was stopped with 2.27 nM EU-anti P-Tyr, 7 mM EDTA, 31.25 nM SA-XL-665 and 0.02% BSA which was present for 60 minutes at room temperature. Time-Resolved Fluorescence Resonance Energy Transfer (TR-FRET) signal (ex340 nm. Em 620 nm, em 655 nm) was measured afterwards and results are expressed in (Relative Fluorescence Units). In this assay, the inhibitory effect of different compound concentrations (range 10 μM to 0.1 nM) was determined and used to calculate an IC50 (M) and pIC50 (−log IC50) value.

KDR (h) (VEGFR2) = KDR (h) (VEGFR2) (Homo sapiens, UniProt P35968); experiment: KDR (VEGFR2) (enzymatic assay), TR-FRET; format: biochemical; settings: 3 μM ATP; for IC50: read-out: VEGFR2 (KDR) pIC50 (converted)
Procedure: KDR (VEGFR2) (Enzymatic Assay)
as §1, with “30 μL, KDR (h) (150” for “30 μL, FGFR2 (h) (150”, “Btn-Flt3 and 3 μM ATP” for “Btn-Flt3 and 0.4 μM ATP”, “incubation for 120 minutes at” for “incubation for 60 minutes at”, “expressed in RFU (Relative Fluorescence” for “expressed in (Relative Fluorescence”

[1] = biological target: T1, Ba/F3-Flt3-transfected cells (Homo sapiens, UniProt P36888, cells depend on it, form not given); experiment: Ba/F3-Flt3 (minus IL3 or plus IL3) cellular proliferation assay; format: cell-based; settings: minus IL3
T1 construct: BAF3-FLT3 (MIN IL3) pIC50; other: minus IL3
T1 sequence (P36888 1-993): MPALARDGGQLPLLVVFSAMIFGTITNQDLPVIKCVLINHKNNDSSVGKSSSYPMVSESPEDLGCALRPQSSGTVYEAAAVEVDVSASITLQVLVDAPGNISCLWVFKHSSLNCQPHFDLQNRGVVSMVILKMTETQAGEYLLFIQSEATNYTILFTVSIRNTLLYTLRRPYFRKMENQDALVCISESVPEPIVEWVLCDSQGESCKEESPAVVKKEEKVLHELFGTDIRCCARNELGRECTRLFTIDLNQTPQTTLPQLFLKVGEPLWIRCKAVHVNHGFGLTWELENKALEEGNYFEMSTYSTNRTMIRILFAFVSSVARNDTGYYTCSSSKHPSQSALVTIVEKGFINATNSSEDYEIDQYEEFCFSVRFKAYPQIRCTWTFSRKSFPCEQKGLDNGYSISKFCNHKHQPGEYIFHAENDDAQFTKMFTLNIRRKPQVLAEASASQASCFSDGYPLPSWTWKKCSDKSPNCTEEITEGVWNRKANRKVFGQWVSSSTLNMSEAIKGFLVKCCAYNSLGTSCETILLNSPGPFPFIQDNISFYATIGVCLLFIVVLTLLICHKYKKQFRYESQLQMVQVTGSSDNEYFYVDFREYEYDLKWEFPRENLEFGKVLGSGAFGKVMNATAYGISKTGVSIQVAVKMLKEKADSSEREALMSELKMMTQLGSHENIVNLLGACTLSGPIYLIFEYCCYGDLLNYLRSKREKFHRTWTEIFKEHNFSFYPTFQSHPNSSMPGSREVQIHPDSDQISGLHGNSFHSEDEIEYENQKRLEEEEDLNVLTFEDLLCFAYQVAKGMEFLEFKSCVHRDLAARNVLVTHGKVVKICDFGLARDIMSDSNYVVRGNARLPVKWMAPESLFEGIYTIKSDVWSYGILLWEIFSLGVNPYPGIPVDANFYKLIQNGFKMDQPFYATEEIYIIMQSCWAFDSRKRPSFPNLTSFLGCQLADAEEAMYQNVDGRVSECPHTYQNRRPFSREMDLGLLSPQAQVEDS
Procedure: (§2) Ba/F3-Flt3 (Minus IL3 or Plus IL3) (Cellular Proliferation Assay)
(§3) In a 384 well plate, 100 nl of compound dilution in DMSO was sprayed before adding 50 μl cell culture medium (phenol red free RPMI-1640, 10% FBS, 2 mM L-Glutamine and 50 μg/ml Gentamycin) containing 20000 cells per well of Ba/F3-Flt3-transfected cells. Cells were put in an incubator at 37° C. and 5% CO2. After 24 hours, 10 μl of Alamar Blue solution (0.5 mM K3Fe(CN)6, 0.5 mM K4Fe(CN)6, 0.15 mM Resazurin and 100 mM Phosphate Buffer) was added to the wells, incubated for 4 hours at 37° C. and 5% CO2 before RFU's (Relative Fluorescence Units) (ex. 540 nm., em. 590 nm.) were measured in a fluororescence plate reader.
(§4) In this assay, the inhibitory effect of different compound concentrations (range 10 μM to 0.1 nM) was determined and used to calculate an IC50 (M) and pIC50 (−log IC50) value.
(§5) As a counterscreen the same experiment was performed in the presence of 10 ng/ml murine IL3.

[2] = test system: Ba/F3-Flt3-transfected cells; experiment: as above; format: cell-based; settings: plus 10 ng/ml murine IL3 (counterscreen); for IC50: 24 h, read-out: BAF3_FLT3 (PLUS IL3) pIC50 (converted)
Procedure: as §2, §3, §4, §5

Sequence of FGFR2 (h) (P21802 22-821): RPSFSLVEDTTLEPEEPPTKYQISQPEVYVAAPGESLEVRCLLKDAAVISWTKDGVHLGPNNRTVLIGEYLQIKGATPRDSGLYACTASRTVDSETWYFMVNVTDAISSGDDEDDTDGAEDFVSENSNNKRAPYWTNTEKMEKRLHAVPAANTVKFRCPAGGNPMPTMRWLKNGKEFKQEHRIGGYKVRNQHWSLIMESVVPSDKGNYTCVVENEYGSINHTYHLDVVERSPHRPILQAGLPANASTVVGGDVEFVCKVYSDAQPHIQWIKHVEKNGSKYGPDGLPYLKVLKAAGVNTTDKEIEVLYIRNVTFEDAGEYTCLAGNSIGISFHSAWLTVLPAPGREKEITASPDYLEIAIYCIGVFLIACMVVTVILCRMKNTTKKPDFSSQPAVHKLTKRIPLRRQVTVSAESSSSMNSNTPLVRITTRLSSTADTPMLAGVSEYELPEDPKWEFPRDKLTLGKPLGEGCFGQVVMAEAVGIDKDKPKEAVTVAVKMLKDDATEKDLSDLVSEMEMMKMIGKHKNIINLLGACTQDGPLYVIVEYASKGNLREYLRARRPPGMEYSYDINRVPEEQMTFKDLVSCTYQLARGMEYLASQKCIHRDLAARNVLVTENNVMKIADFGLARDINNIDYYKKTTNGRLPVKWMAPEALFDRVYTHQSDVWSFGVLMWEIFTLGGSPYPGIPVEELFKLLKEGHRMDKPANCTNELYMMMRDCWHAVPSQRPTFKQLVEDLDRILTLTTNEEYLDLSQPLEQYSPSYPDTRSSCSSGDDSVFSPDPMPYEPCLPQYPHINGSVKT
Sequence of KDR (h) (VEGFR2) (P35968 20-1356): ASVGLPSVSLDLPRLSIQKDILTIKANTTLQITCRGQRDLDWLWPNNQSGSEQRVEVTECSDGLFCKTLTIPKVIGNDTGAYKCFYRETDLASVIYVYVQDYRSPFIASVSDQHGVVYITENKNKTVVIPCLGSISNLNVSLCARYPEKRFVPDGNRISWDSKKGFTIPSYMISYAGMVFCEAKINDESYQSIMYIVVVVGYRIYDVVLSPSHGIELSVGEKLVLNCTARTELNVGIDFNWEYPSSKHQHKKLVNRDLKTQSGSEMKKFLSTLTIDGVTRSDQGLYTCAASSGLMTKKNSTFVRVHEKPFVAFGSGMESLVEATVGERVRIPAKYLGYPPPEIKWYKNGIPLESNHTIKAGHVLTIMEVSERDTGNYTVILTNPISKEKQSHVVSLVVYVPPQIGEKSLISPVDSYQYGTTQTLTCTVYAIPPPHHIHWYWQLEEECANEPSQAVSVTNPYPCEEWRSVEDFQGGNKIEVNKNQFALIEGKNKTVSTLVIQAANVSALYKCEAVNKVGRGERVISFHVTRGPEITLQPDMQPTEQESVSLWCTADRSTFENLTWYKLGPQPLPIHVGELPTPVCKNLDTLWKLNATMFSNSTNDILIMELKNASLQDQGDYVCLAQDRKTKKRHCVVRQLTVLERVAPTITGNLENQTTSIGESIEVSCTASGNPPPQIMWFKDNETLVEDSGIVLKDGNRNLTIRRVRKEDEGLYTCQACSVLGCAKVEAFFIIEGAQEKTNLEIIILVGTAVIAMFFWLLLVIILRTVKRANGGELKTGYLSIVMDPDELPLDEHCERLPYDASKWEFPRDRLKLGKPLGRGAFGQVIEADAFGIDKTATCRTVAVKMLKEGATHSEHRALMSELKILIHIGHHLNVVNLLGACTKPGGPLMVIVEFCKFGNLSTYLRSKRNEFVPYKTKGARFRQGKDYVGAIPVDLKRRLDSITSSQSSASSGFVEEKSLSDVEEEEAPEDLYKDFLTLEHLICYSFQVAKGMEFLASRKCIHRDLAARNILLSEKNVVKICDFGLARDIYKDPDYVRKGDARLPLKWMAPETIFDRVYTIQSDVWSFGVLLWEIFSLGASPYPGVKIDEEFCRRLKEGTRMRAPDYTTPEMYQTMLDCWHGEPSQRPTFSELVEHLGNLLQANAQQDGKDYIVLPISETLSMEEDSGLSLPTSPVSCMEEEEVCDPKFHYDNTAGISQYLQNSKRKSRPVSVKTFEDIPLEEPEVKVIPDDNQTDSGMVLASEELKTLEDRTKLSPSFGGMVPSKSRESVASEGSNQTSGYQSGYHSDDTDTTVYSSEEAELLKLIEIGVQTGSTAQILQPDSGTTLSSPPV

Row | Compound | IC50 (FGFR2 (h)) | IC50 (KDR (h) (VEGFR2)) | BAF3-FLT3 (MIN IL3) pIC50 [1] | VEGFR2 (KDR) pIC50 (KDR (h) (VEGFR2)) | IC50 [2] | BAF3_FLT3 (PLUS IL3) pIC50 [2]
1 | COc1cc(OC)cc(C(O)(CNCCNC(C)C)c2ccc3ncc(-c4cnn(C)c4)nc3c2)c1 (single isomer, unassigned) [Compound 6] | 813 nM | – | <5 | – | – | –
2 | COc1cc(OC)cc(C(CCNC(C)C)c2ccc3ncc(-c4cnn(C)c4)nc3c2)c1 (single isomer, unassigned) [Compound 19a] | 17.8 nM | > 1000 nM | <5 | – | > 10000 nM | –
3 | COc1cc(OC)cc(C(NCCNC(C)C)c2ccc3ncc(-c4cnn(C)c4)nc3c2)c1.Cl (single isomer, unassigned) [Compound 24] | 324 nM | > 1000 nM | <5 | – | > 10000 nM | –
4 | COc1cc(OC)cc(C(CCNC(C)C)c2ccc3ncc(-c4cnn(C)c4)nc3c2)c1 (single isomer, unassigned) [Compound 32a] | 851 nM | > 10000 nM | <5 | – | – | <5
5 | CNCC(O)(c1cc(OC)cc(OC)c1)c1ccc2ncc(-c3cnn(C)c3)nc2c1.Cl (single isomer, unassigned) [Compound 38] | > 1000 nM | – | <5 | <6 | – | <5
6 | COc1cc(OC)cc(C(NCCNC(C)C)c2ccc3ncc(-c4cnn(C)c4)nc3c2)c1.Cl (single isomer, unassigned) [Compound 39] | > 1000 nM | – | <5 | <6 | – | <5
7 | COc1cc(OC)cc(C(=O)c2ccc3ncc(-c4cnn(C)c4)nc3c2)c1 [Compound 2] | 209 nM | 708 nM | <5 | – | > 10000 nM | –
8 | COc1cc(OC)cc(/C(=C/C#N)c2ccc3ncc(-c4cnn(C)c4)nc3c2)c1 [Compound 3] | 5130 nM | 3980 nM | <5 | – | > 10000 nM | –
9 | COc1cc(OC)cc(/C(=C\CNC(C)C)c2ccc3ncc(-c4cnn(C)c4)nc3c2)c1 [Compound 8, {(Z)-3-(3,5-Dimethoxy-phenyl)-3-[3-(1-methyl-1H-pyrazol-4-yl)-quinoxalin-6-yl]-allyl}-isopropyl-amine] | 10.7 nM | 389 nM | 5.09 | – | ~8710 nM | –
10 | COc1cc(OC)cc(/C(=C/CNC(C)C)c2ccc3ncc(-c4cnn(C)c4)nc3c2)c1 [Compound 9] | 87.1 nM | 4470 nM | ~5.05 | – | > 10000 nM | –
11 | COc1cc(OC)cc(C(CC#N)c2ccc3ncc(-c4cnn(C)c4)nc3c2)c1 (stereo not drawn) [Compound 18] | 145 nM | > 1000 nM | <5 | – | > 10000 nM | –
12 | COc1cc(OC)cc(C(CCN)c2ccc3ncc(-c4cnn(C)c4)nc3c2)c1.Cl (stereo not drawn) [Compound 20] | 67.6 nM | 4680 nM | <5 | – | > 10000 nM | –
13 | COc1cc(OC)cc(C(CCN(C)C)c2ccc3ncc(-c4cnn(C)c4)nc3c2)c1.Cl (stereo not drawn) [Compound 21] | 67.6 nM | > 1000 nM | <5 | – | > 10000 nM | –
14 | Cn1cc(-c2cnc3ccc(C(O)c4ccccc4)cc3n2)cn1 (stereo not drawn) [Compound 28] | 2630 nM | 1580 nM | <5 | – | > 10000 nM | –

Now from value to molecule, other results behind:

Row | IC50 (FGFR2 (h)) | IC50 (KDR (h) (VEGFR2)) | BAF3-FLT3 (MIN IL3) pIC50 [1] | VEGFR2 (KDR) pIC50 (KDR (h) (VEGFR2)) | Compound | IC50 [2] | BAF3_FLT3 (PLUS IL3) pIC50 [2]
15 | ~741 nM | > 1000 nM | <5 | – | COc1cc(OC)cc(C(O)(CNCCNC(C)C)c2ccc3ncc(-c4cnn(C)c4)nc3c2)c1 (single isomer, unassigned) [Compound 5] | > 10000 nM | –
16 | 589 nM | > 1000 nM | <5 | – | CNCC(O)(c1cc(OC)cc(OC)c1)c1ccc2ncc(-c3cnn(C)c3)nc2c1.Cl (single isomer, unassigned) [Compound 37] | > 10000 nM | –
17 | 102 nM | 661 nM | 5.29 | – | COc1cc(OC)cc(/C(=C\C#N)c2ccc3ncc(-c4cnn(C)c4)nc3c2)c1 [Compound 4] | > 10000 nM | –
18 | 38 nM | 347 nM | <5 | – | COc1cc(OC)cc(C(CCN2CCCC2=O)c2ccc3ncc(-c4cnn(C)c4)nc3c2)c1.Cl (stereo not drawn) [Compound 7] | > 10000 nM | –
19 | 15.8 nM | > 1000 nM | <5 | – | COc1cc(OC)cc(/C(=C\CN(C)C)c2ccc3ncc(-c4cnn(C)c4)nc3c2)c1 [Compound 10, {(Z)-3-(3,5-Dimethoxy-phenyl)-3-[3-(1-methyl-1H-pyrazol-4-yl)-quinoxalin-6-yl]-allyl}-dimethyl-amine] | > 10000 nM | –
20 | 12.9 nM | 245 nM | <5 | – | COc1cc(OC)cc(/C(=C\CNCC(F)(F)F)c2ccc3ncc(-c4cnn(C)c4)nc3c2)c1 [Compound 14, {(Z)-3-(3,5-Dimethoxy-phenyl)-3-[3-(1-methyl-1H-pyrazol-4-yl)-quinoxalin-6-yl]-allyl}-(2,2,2-trifluoro-ethyl)-amine] | > 10000 nM | –
21 | 126 nM | > 1000 nM | <5 | – | COc1cc(OC)cc(C(CCO)c2ccc3ncc(-c4cnn(C)c4)nc3c2)c1 (stereo not drawn) [Compound 22] | > 10000 nM | –
22 | > 1000 nM | > 1000 nM | <5 | – | COc1cc(OC)cc(C(CC(=O)NC(C)C)c2ccc3ncc(-c4cnn(C)c4)nc3c2)c1 (stereo not drawn) [Compound 23] | > 10000 nM | –
23 | ~1000 nM | 562 nM | <5 | – | COc1cc(OC)cc(C(CC(C)(O)CNC(C)C)c2ccc3ncc(-c4cnn(C)c4)nc3c2)c1.Cl (stereo not drawn) [Compound 25] | > 10000 nM | –
